Laboratory results reported in ChEMBL document CHEMBL3714742, “Pyrimido (4,5-b) indole derivatives” (2003).
pIC50: −log10 of the molar value. The source made the active and inactive calls. The rule behind the calls is not given here.

Experiments:
[1] = test system: Mus musculus; assay: Inhibition of anti-CD3 antibody-induced IL2 production in Balb/c mouse dosed intravenously 5 mins before anti-CD3 antibody injection and measured 2 hrs post-challenge by ELISA; type: functional, organism-based
[2] = test system: Mus musculus; assay: Inhibition of anti-CD3 antibody-induced IL4 production in Balb/c mouse dosed intravenously 5 mins before anti-CD3 antibody injection and measured 2 hrs post-challenge by ELISA; type: functional, organism-based
[3] = test system: Mus musculus; assay: Inhibition of anti-CD3 antibody-induced IFNgamma production in Balb/c mouse dosed intravenously 5 mins before anti-CD3 antibody injection and measured 2 hrs post-challenge by ELISA; type: functional, organism-based
[4] = molecular target: T1, Dual specificity mitogen-activated protein kinase kinase 4 (Homo sapiens, UniProt P45985); assay: Inhibition of GST-tagged human MKK4 expressed in Escherichia coli (BL21(DE3) pLysS) co-expressing human MEKK catalytic domain using biotinylated and GST-tagged rat GST-KN-SAPKalpha substrate incubated for 2 hrs by time-resolved fluorescence based assay
T1 sequence (P45985 whole entry): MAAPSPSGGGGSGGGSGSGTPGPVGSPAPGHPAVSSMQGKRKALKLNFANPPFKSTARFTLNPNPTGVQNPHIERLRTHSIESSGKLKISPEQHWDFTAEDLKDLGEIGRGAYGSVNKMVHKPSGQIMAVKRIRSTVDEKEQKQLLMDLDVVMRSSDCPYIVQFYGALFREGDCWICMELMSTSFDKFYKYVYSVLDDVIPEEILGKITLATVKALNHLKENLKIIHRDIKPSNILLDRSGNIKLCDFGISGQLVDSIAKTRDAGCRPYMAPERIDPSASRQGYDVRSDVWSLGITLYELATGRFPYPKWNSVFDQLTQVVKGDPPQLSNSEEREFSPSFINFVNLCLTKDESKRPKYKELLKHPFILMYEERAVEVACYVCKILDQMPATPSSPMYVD

[5] = molecular target: T2, Dual specificity mitogen-activated protein kinase kinase 7 (Homo sapiens, UniProt O14733); assay: Inhibition of GST-tagged human MKK7 expressed in Escherichia coli (BL21(DE3) pLysS) co-expressing human MEKK catalytic domain using biotinylated and GST-tagged rat GST-KN-SAPKalpha substrate incubated for 1 hr by time-resolved fluorescence based assay
T2 sequence (O14733 whole entry): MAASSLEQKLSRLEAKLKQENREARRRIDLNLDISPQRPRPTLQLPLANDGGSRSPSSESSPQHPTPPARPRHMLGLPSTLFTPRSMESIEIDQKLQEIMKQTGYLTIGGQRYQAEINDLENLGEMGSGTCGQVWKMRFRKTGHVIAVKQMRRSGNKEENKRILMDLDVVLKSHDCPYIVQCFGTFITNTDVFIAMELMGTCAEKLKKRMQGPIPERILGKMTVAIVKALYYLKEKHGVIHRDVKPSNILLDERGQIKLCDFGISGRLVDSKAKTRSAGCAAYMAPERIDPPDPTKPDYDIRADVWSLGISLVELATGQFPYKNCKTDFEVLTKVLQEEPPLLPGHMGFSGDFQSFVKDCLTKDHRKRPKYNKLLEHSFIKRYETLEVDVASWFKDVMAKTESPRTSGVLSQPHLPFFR

SMILES | pIC50 [4] | pIC50 [5] | inhibition [1] | inhibition [2] | inhibition [3]
Cc1nc(N2CCCCC2)c2c(n1)[nH]c1ccc(C(N)=O)cc12 | > 6.00 | > 6.00 | Active | Active | Active
Cc1nc(N2CCCCC2)c2c(n1)[nH]c1ccc(C(=O)O)cc12 | > 6.00 | > 6.00 | Active | Active | Active
Oc1ccc2[nH]c3ncnc(N4CCCC(O)C4)c3c2c1 (stereo unspecified) |  | > 6.00 | Active | Active | Active
OCCC1CCN(c2ncnc3[nH]c4ccc(O)cc4c23)CC1 |  | > 6.00 | Active | Active | Active
Oc1ccc2[nH]c3ncnc(N[C@H]4CC[C@H](O)CC4)c3c2c1 |  | > 6.00 | Active | Active | Active
NC(=O)c1ccc2[nH]c3ncnc(N4CCOCC4)c3c2c1 |  | > 6.00 | Active | Active | Active
Oc1ccc2[nH]c3ncnc(NC4CCCCCC4)c3c2c1 |  | > 6.00 | Active | Active | Active
CNC1CCN(c2ncnc3[nH]c4ccc(C(N)=O)cc4c23)C1 (stereo unspecified) |  | > 6.00 | Active | Active | Active
NC(=O)c1ccc2[nH]c3ncnc(N4CCC(CO)CC4)c3c2c1 |  | > 6.00 | Active | Active | Active
CC(C)(C)OC(=O)N1CCC(Nc2ncnc3[nH]c4ccc(O)cc4c23)CC1 |  | > 6.00 | Active | Active | Active
Nc1nc(N2CCC(N3CCCC3)CC2)c2c(n1)[nH]c1ccc(O)cc12 |  | > 6.00 | Active | Active | Active
Cc1nc(N2CCC(CO)CC2)c2c(n1)[nH]c1ccc(O)cc12 |  | 6.00 | Active | Active | Active
CN(CCO)c1ncnc2[nH]c3ccc(C(N)=O)cc3c12 |  | > 6.00 | Active | Active | Active
NCCNc1ncnc2[nH]c3ccc(O)cc3c12 |  | > 6.00 | Active | Active | Active
Oc1ccc2[nH]c3ncnc(N4CCOCC4)c3c2c1 |  | > 6.00 | Active | Active | Active
NC(=O)c1ccc2[nH]c3ncnc(NC4CCCCC4)c3c2c1 |  | > 6.00 | Active | Active | Active
NC(=O)c1ccc2[nH]c3ncnc(NC4CCCC4)c3c2c1 |  | > 6.00 | Active | Active | Active
CC(C)(C)OC(=O)NCCCNc1ncnc2[nH]c3ccc(C(N)=O)cc3c12 |  | > 6.00 | Active | Active | Active
COC(=O)c1ccc2[nH]c3nc(C)nc(N4CCCCC4)c3c2c1 |  | > 6.00 | Active | Active | Active
Oc1ccc2[nH]c3ncnc(N4CCCC4)c3c2c1 |  | > 6.00 | Active | Active | Active
CC(C)(C)OC(=O)NC1CCCN(c2ncnc3[nH]c4ccc(C(N)=O)cc4c23)C1 (stereo unspecified) |  | > 6.00 | Active | Active | Active
NC(=O)c1ccc2[nH]c3ncnc(N4CCCCC4CO)c3c2c1 (stereo unspecified) |  | > 6.00 | Active | Active | Active
Cc1ccc2[nH]c3nc(N)nc(N4CCCCC4)c3c2c1 |  | > 6.00 | Active | Active | Active
OCCC1CCCN(c2ncnc3[nH]c4ccc(O)cc4c23)C1 (stereo unspecified) |  | > 6.00 | Active | Active | Active
Nc1nc(N2CCCCC2)c2c(n1)[nH]c1ccc(C(=O)O)cc12 |  | > 6.00 | Active | Active | Active
OCC1(Nc2ncnc3[nH]c4ccc(O)cc4c23)CCCC1 |  | > 6.00 | Active | Active | Active
Oc1ccc2[nH]c3ncnc(NC4CCCCC4)c3c2c1 |  | > 6.00 | Active | Active | Active
Cc1nc(N2CCCCCC2)c2c(n1)[nH]c1ccc(O)cc12 |  | > 6.00 | Active | Active | Active
OCCNc1ncnc2[nH]c3ccc(O)cc3c12 |  | > 6.00 | Active | Active | Active
NC(=O)c1ccc2[nH]c3ncnc(N4CCCC(O)C4)c3c2c1 (stereo unspecified) |  | > 6.00 | Active | Active | Active

Continued, in another order:

pIC50 [4] | pIC50 [5] | SMILES | inhibition [1] | inhibition [2] | inhibition [3]
> 6.00 | > 6.00 | Nc1nc(N2CCCCCC2)c2c(n1)[nH]c1ccc(O)cc12 | Active | Active | Active
 | > 6.00 | C[C@H](CO)Nc1ncnc2[nH]c3ccc(O)cc3c12 | Active | Active | Active
 | > 6.00 | Nc1nc(NC2CCCCCC2)c2c(n1)[nH]c1ccc(O)cc12 | Active | Active | Active
 | 6.00 | Cc1nc(NCCO)c2c(n1)[nH]c1ccc(O)cc12 | Active | Active | Active
 | 6.00 | Nc1nc(N2CCNCC2)c2c(n1)[nH]c1ccc(O)cc12 | Active | Active | Active
 | < 5.00 | Nc1nc(NCCN2CCCC2)c2c(n1)[nH]c1ccc(O)cc12 | Active | Active | Active
 | > 6.00 | Nc1nc(N2CCC3CCCCC3C2)c2c(n1)[nH]c1ccc(O)cc12 (stereo unspecified) | Active | Active | Active
 | > 6.00 | OCCN(CCO)c1ncnc2[nH]c3ccc(O)cc3c12 | Active | Active | Active
 | > 6.00 | CC(C)N(C)c1nc(N)nc2[nH]c3ccc(O)cc3c12 | Active | Active | Active
> 6.00 | > 6.00 | Cc1nc(NC(C)CO)c2c(n1)[nH]c1ccc(O)cc12 (stereo unspecified) | Active | Active | Active
 | 6.00 | Cc1nc(N2CCCC2)c2c(n1)[nH]c1ccc(O)cc12 | Active | Active | Active
 | > 6.00 | CC(CO)Nc1ncnc2[nH]c3ccc(O)cc3c12 (stereo unspecified) | Active | Active | Active
 | > 6.00 | COC1CCN(c2nc(N)nc3[nH]c4ccc(O)cc4c23)CC1 | Active | Active | Active
